Source: article PMC8464850, “Sulfonium Ligands of the α7 nAChR” (Molecules, 2021)

Assays:
[1] = general knowledge, no reference given; cited from earlier work
[2] = molecular target: T1, muscle-type (α1β1εδ) receptors (Mus musculus, UniProt P02716+P04756+P20782); conditions: cited from earlier work
T1 construct: expressed in transfected cells; host or cells: Xenopus laevis oocytes (injected RNA)

[3] = molecular target: T2, α7 nAChR (Homo sapiens, UniProt P36544); experiment: Inhibition of α7 ACh-evoked responses; type: cell-based
T2 construct: expressed in transfected cells; host or cells: Xenopus laevis oocytes (injected RNA)
T2 sequence (P36544 23-502): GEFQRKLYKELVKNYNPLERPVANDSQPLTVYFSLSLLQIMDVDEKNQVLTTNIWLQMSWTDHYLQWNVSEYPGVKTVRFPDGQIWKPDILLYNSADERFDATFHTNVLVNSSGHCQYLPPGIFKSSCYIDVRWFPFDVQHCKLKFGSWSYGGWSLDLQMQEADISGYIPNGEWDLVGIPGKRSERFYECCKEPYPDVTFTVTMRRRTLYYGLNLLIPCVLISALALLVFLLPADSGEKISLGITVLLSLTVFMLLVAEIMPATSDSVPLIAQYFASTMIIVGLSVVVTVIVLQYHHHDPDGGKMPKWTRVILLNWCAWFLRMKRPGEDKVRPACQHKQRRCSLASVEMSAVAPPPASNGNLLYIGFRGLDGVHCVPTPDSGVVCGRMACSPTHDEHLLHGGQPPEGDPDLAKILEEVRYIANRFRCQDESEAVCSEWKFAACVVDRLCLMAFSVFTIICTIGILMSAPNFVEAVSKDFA
Protocol: Figure 4 Effects sulfonium compounds on α7 ACh-evoked net-charge responses. (A) Effects of the sulfonium compounds at 100 µM co-applied with 60 µM relative to responses to 60 µM ACh applied alone. Data are the averages (±SEM) from seven or eight cells under each condition. (B) Effects of select sulfonium compounds at 1 mM co-applied with 60 µM relative to responses to 60 µM ACh applied alone. Data are the averages (±SEM) from seven or eight cells under each condition. Statistical significance was determined by pairwise t-test with p values corrected for multiple comparisons; * p < 0.05, ** p < 0.001.
The sulfonium compounds that were active with TQS but produced little inhibition of ACh response at a concentration of 100 µM were tested as inhibitors of ACh response at a concentration of 1 mM (Figure 4B).
We tested S8 across a range of concentrations for its ability to inhibit 60 µM ACh responses (Figure 5A). Note that we use 60 µM as an ACh control because this concentration gives nearly maximal (93%) net-charge responses, with the time course of the responses roughly following the speed of solution exchange. […] We tested whether inhibition of α7 responses by S8 was surmountable by increasing ACh concentration, consistent with a competitive mechanism of inhibition. However, since α7 responses to concentrations of ACh greater than 60 µM occur more rapidly than solution exchange in the chamber, we first pre-applied 5 µM S8 prior to the co-application of 5 µM S8 with either 60 µM or 1 mM ACh (Figure 5B). The 60 µM net-charge responses were reduced to 28 ± 2% of controls (n = 8) and 60 µM peak currents to 21 ± 3 % controls. The 1 mM net-charge responses were reduced to 56 ± 6 % of those obtained without S8 co-application, although the S8 co-application increased the peak-current amplitudes compared to 60 µM controls from 1.78 ± 0.15 to 3.72 ± 0.81 (n = 8).
Figure 5 Inhibition of α7 ACh-evoked responses by S8. (A) Concentration-response studies of α7 net-charge responses to 60 µM ACh co-applied with increasing concentrations of S8. To confirm the stability of the ACh responses, applications of ACh plus S8 were alternated with applications of ACh alone. Data are the averages of eight cells (±SEM). See text for curve-fit values. (B) Effects of 5 µM S8 on responses to either 60 µM or 1 mM ACh. The traces shown across the top are the averaged raw data from seven cells, each normalized to the peak current of the first ACh control response shown. In order to assure that the S8 was present at 5 µM throughout the ACh-evoked responses, a 30 s pre-application was made of 5 µM S8 alone. The lower traces show averaged responses to 60 µM or 1 mM ACh alone or with the 5 µM S8 pre- and co-application. The details of the data are described in Methods.
(§1) Experiments were conducted using OpusXpress 6000A (Molecular Devices, Union City, CA, USA). Both the voltage and current electrodes were filled with 3 M KCl. Oocytes were voltage-clamped at −60 mV at room temperature (24 °C). The oocytes were bath-perfused with Ringer’s solution (115 mM NaCl, 2.5 mM KCl, 1.8 mM CaCl2, 10 mM HEPES, and 1 μM atropine, pH 7.2) at 2 mL/min for α7 receptors, or 4 mL/min for heteromeric nAChR. To evaluate the effects of experimental compounds, responses were compared to control ACh-evoked responses, defined as the average of two initial applications of ACh made before test applications. ACh control concentrations were 60 µM for α7 receptors; 100 µM for α4(3)β2(2) and α3β4 receptors; 30 µM for α4β2α6β2β3 and muscle-type (αβ1εδ) receptors; and 10 µM for α4(3)β2(2) and α4(2)β2(2)α5 receptors.
Solutions were applied from 96-well plates via disposable tips. Drug applications were 12 s in duration, followed by 181 s washout periods for α7 receptors, or 6 s in duration followed by 301 s washout periods for heteromeric nAChR. […]

[4] = molecular target: T3, human α7 receptors (Homo sapiens, UniProt P36544); design: method as in PMID 12183330; conditions: 60 µM ACh; cited from earlier work
T3 construct: expressed in transfected cells; host or cells: Xenopus laevis oocytes (injected RNA)
T3 sequence (P36544 23-502): as above

[5] = molecular target: T2, α7 nAChR; experiment: α7 concentration-response on co-application with 10 µM PNU-120596; type: cell-based; conditions: peak currents, co-applied with 10 µM PNU-120596, Hill fit
Protocol: (§2) Compounds were co-applied at a concentration of 100 µM with 30 µM racemic TQS (Figure 3A). All compounds except S4, S5, and S8 gave large responses when co-applied with TQS, consistent with silent agonism of α7 (see Table S1 for ANOVA). Active compounds were also evaluated across a range of concentrations with the alternative PAM, PNU-120596 (Figure 3B). The curve-fit values for Imax (Table 1) should be taken only as approximation of the relative efficacies of the compounds, due to the large variability frequently observed in PNU-120596-potentiated responses, as evidenced by the large SEMs of the responses obtained with high concentrations.
(§3) Figure 3 Responses of α7 nAChR to sulfonium compounds coapplied with PAMs. (A) Potentiation of α7 responses with 30 µM racemic TQS. Shown are the average net-charge responses of seven or eight oocytes ± SEM. (B) Concentration-response studies of peak currents generated by compounds that gave positive responses with TQS, coapplied with 10 µM PNU-120596. Each point represents the average (±SEM) of at least four oocytes.
as §1
(§4) Solutions were applied from 96-well plates via disposable tips. Drug applications were 12 s in duration, followed by 181 s washout periods for α7 receptors, or 6 s in duration followed by 301 s washout periods for heteromeric nAChR. The responses were calculated as both peak current amplitudes and net charge, as previously described. Data were collected at 50 Hz, filtered at 20 Hz for α7 receptors or filtered at 5 Hz for heteromeric nAChR, and analyzed by Clampfit (Molecular Devices, San Jose, CA, USA) and Excel (Microsoft, Redmond, WA, USA). Data were expressed as means ± SEM from at least four oocytes for each experiment and plotted with Kaleidagraph 4.5.2 (Abelbeck Software, Reading, PA, USA). Multi-cell averages were calculated for comparisons of complex responses. Averages of the normalized data were calculated for each of the 10,322 points in each of the 206.44 s traces (acquired at 50 Hz), as well as the standard errors for those averages.

[6] = design: method as in PMID 11456386; conditions: cited from earlier work
[7] = tested on: ganglionic (α3β4) nAChR; design: method as in earlier work; conditions: 100 µM suplatast; ref 29 (Zhou et al.); cited from earlier work
[8] = molecular target: T2, α7 nAChR; experiment: α7 responses on co-application with the type II PAM TQS (silent agonism); type: cell-based
Protocol: as §2, §3
The human nAChR clones were obtained from Jon Lindstrom (University of Pennsylvania, Philadelphia, PA, USA). Mouse muscle subunit clones were obtained from Jim Boulter (Salk Institute, La Jolla, CA, USA) and Paul Gardner (Dartmouth, Hanover, NH, USA). The human resistance-to-cholinesterase 3 (RIC3) clone was obtained from Millet Treinin (Hebrew University, Jerusalem, Israel) and co-injected with α7 to improve the level and speed of α7 receptor expression without affecting the pharmacological properties of the receptors. Subsequent to linearization and purification of the plasmid DNAs, RNAs were prepared using the mMessage mMachine in vitro RNA transcription kit (Ambion, Austin, TX, USA).
as §1, §4

[9] = molecular target: T4, α3β4 nAChR (Homo sapiens, UniProt P30926+P32297); experiment: Inhibition of α3β4 100 µM ACh-evoked peak currents; type: cell-based
T4 construct: expressed in transfected cells; host or cells: Xenopus laevis oocytes (injected RNA)
T4 sequence (P32297 32-505): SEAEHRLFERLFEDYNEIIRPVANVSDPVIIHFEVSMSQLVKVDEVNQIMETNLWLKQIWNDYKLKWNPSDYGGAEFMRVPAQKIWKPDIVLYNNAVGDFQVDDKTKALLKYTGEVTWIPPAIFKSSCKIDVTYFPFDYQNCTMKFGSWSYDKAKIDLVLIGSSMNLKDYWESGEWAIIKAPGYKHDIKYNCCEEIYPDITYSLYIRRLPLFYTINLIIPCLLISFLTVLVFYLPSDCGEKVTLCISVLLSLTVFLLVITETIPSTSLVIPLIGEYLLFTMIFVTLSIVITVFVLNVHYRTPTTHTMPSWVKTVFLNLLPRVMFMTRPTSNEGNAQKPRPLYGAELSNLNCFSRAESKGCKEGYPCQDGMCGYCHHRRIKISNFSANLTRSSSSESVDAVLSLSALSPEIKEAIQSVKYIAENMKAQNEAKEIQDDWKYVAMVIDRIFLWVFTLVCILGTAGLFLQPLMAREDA
T4 sequence (P30926 22-498): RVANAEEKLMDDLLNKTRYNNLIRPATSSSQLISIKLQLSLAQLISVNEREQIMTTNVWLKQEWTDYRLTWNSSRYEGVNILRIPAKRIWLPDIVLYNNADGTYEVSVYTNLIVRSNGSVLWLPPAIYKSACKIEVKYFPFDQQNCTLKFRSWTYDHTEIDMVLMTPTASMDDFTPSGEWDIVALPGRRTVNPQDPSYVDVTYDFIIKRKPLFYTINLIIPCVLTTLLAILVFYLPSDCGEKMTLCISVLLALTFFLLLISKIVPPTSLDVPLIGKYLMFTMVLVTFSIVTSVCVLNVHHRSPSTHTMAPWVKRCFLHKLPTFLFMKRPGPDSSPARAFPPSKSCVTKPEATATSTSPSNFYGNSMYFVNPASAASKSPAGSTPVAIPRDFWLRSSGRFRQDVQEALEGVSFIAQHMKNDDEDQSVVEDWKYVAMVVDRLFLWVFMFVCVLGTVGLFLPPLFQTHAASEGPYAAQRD
Protocol: Although none of the other sulfonium compounds activated neuronal heteromeric receptors, several of them produced inhibition of ACh-evoked responses. Shown in Figure 7A are concentration-response studies for the compounds that were active antagonists of α3β4 nAChR (Table 3). Some compounds were also tested as antagonists of α4β2 subtypes formed with concatamers (Figure 7B).
Figure 7 Inhibition of heteromeric nAChR by sulfonium compounds. (A) Inhibition of α3β4 100 µM ACh-evoked peak currents by the co-application of the sulfonium compounds. Data are the averaged of six to eight oocytes (±SEM). To confirm the stability of the ACh responses, applications of ACh plus the sulfonium compounds were alternated with applications of ACh alone. (B) Inhibition of ACh control peak-current responses of α4-containing nAChR formed with concatamers by 100 µM of the sulfonium compounds indicated. Data are the average of six to eight oocytes (±SEM).
as §1, §4

T1 sequence (P04756 21-457): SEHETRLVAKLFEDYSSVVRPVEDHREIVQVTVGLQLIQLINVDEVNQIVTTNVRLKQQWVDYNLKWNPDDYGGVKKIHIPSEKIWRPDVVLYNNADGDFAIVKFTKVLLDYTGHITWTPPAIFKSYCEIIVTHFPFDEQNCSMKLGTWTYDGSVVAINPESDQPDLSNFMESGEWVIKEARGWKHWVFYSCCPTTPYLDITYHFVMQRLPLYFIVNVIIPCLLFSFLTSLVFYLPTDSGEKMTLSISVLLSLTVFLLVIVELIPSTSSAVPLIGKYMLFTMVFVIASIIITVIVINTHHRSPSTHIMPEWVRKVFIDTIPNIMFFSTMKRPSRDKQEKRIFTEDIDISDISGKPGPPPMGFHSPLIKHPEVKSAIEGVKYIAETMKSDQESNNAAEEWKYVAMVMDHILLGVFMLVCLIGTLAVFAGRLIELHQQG
T1 sequence (P09690 24-501 partner): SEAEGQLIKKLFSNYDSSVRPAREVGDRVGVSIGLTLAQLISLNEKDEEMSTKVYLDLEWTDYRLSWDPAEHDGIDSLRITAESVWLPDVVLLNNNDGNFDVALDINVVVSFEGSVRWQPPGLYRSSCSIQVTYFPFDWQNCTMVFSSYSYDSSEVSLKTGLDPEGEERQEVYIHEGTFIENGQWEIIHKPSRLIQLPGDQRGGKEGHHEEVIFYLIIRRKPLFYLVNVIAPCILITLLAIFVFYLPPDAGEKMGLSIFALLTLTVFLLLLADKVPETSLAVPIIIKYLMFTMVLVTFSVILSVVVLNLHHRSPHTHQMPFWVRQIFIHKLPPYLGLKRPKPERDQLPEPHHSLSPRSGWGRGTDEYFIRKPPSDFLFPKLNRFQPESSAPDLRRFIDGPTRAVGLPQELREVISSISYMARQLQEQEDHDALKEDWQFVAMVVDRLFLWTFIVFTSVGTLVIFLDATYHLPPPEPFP
T1 sequence (P20782 21-493): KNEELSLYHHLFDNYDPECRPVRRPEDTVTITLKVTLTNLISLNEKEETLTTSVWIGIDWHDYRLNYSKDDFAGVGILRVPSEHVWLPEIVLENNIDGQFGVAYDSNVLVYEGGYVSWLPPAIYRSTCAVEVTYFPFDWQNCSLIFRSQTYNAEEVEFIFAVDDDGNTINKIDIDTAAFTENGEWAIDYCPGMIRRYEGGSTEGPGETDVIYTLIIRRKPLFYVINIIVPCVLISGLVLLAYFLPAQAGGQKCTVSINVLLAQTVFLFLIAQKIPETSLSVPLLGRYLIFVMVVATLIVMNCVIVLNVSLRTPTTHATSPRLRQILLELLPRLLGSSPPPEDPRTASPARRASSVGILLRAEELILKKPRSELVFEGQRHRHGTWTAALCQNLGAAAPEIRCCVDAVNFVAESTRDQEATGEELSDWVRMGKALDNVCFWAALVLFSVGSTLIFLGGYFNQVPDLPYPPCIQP
T1 sequence (P02716 25-520): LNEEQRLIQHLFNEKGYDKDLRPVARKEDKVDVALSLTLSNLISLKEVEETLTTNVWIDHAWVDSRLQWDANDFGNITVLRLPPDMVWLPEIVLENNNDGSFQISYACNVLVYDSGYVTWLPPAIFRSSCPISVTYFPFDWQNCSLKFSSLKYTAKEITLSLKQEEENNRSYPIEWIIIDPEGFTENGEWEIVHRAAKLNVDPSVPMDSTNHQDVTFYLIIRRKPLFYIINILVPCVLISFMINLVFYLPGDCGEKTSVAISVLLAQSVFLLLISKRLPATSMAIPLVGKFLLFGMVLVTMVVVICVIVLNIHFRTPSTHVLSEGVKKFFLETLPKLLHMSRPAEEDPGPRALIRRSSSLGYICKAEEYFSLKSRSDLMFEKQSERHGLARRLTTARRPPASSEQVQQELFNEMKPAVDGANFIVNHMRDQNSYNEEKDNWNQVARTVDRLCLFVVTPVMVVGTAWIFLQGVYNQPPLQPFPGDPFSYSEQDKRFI

In the case of `O=[N+]([O-])c1ccc(O)cc1` [para-nitrophenol], the “pKa for the phenolic hydroxyl” value [1] is given as ~ 7.

For `C[N+](C)(C)C` [TMA, tetramethylammonium ion], the “activation of muscle-type receptors” value [2] is given as “not an effective activator”.

In the case of `CC(=O)OCC[N+](C)(C)C` [ACh, Acetylcholine chloride, reference compound], the “1 mM ACh peak-current amplitudes compared to 60 µM controls” value ([3]; 1 mM ACh without S8, n = 8) is given as 1.78 ± 0.15 and the “net-charge response as share of maximal” value [4] is given as 93%.

For `CCOCC(O)COc1ccc(NC(=O)CC[S+](C)C)cc1.Cc1ccc(S(=O)(=O)[O-])cc1` (centres unmarked) [Compound S6, (3-((4-(3-ethoxy-2-hydroxypropoxy)phenyl)amino)-3-oxopropyl)dimethylsulfonium tosylate, reference compound], the inhibition at 100 µM ([3]; compound co-applied at 100 µM, net charge, read-out: inhibition of responses to 60 µM ACh) was about 50%, the “IMax (PNU Activation)” value ([5]; approximation only) was 2.2 ± 0.3 and the EC50 ([5]; read-out: EC50 (PNU Activation)) was 12.5 ± 4.9 µM. For the same compound, the “distribution to the brain” value [6] was “poor”, the oral bioavailability [6] was “orally bioavailable” and the “effect on ganglionic (α3β4) nAChR” value [7] was “channel block”. For the same compound, the “relative activity as α7 silent agonist / desensitizer (rank order)” value ([8]; 100 µM with 30 µM TQS, Figure 3A, listed as suplatast) was “most desensitizing”, the “α7 functional classification (silent agonist / inactive)” value ([8]; inactive alone, active with a PAM = silent agonist) was “silent agonist activity” and the “surmountability of α3β4 inhibition by ACh” value ([9]; 5 µM S6, 1 mM ACh vs 30 µM ACh, data not shown) was “not surmountable by increasing ACh concentration”. The IC50 ([9]; co-application with 100 µM ACh, peak currents) was 4.5 ± 0.6 µM.
